How the values were obtained:
Assay type in all cases: cell-based
M2 muscarinic receptor = target: T1, M2 muscarinic receptor (Homo sapiens, UniProt P08172); experiment: Functional mobilization of intracellular calcium (FLIPR), M2-CHO cells; conditions: for M2 Activity: M2-CHO cells, calcium mobilization (FLIPR)
T1 construct: expressed in transfected cells; host or cells: CHO (M2-CHO)
T1 sequence (P08172 1-466): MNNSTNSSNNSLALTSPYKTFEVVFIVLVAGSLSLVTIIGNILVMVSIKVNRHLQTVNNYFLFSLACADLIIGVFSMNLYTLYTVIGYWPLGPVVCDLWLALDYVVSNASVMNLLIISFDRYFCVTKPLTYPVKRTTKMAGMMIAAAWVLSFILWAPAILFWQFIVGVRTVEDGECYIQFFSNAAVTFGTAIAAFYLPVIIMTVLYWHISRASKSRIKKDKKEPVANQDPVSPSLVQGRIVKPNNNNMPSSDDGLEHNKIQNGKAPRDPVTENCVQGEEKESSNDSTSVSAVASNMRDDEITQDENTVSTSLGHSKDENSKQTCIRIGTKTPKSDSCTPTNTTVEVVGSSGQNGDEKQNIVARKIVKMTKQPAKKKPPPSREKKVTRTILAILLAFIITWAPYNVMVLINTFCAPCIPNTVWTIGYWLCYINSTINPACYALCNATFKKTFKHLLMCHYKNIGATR
How it was run: (§1)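 CHO cells expressing human M1–M4 receptors loaded with Fluo-3 AM or Calcium 3 dye (1 mM probenecid, pH 7.4); 0.5% DMSO final. Agonist mode: compound added directly; antagonist mode: 15 min pre-incubation or co-application, then carbachol at EC80. Fluorescence read 60 s on FLIPR; efficacy relative to carbachol maximum.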

M1 muscarinic receptor = target: T2, M1 muscarinic receptor (Homo sapiens, UniProt P11229); experiment: Functional mobilization of intracellular calcium (FLIPR), M1-CHO cells; conditions: for M1 Activity: M1-CHO cells, calcium mobilization (FLIPR)
T2 construct: expressed in transfected cells; host or cells: CHO (M1-CHO)
T2 sequence (P11229 1-460): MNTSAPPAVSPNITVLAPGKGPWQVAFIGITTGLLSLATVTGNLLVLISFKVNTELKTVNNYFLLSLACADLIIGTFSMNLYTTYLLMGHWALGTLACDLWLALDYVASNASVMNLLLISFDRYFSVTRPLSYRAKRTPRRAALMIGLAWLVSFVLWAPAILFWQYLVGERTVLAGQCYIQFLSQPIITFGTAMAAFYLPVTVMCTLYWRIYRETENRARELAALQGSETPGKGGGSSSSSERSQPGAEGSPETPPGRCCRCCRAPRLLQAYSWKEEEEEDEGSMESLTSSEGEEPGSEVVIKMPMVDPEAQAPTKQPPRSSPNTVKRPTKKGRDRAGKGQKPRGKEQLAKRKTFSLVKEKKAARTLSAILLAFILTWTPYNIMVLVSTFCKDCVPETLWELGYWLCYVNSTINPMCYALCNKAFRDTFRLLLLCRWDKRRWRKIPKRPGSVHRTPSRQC
How it was run: as §1

M4 muscarinic receptor = target: T3, M4 muscarinic receptor (Homo sapiens, UniProt P08173); experiment: Functional mobilization of intracellular calcium (FLIPR), M4-CHO cells; conditions: for M4 Activity: M4-CHO cells, calcium mobilization (FLIPR)
T3 construct: expressed in transfected cells; host or cells: CHO (M4-CHO)
T3 sequence (P08173 1-479): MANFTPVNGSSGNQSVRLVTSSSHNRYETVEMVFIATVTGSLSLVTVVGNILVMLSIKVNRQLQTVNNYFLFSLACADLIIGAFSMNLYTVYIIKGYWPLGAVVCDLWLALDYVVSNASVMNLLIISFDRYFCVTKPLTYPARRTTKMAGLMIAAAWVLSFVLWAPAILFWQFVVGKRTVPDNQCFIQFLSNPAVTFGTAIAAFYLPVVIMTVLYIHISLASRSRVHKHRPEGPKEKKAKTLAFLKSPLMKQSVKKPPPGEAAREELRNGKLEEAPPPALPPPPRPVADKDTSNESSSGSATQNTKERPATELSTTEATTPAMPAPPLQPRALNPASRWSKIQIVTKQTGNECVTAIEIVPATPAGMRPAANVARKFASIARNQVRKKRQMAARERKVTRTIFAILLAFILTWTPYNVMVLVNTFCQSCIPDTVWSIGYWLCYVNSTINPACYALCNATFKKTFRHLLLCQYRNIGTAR
How it was run: as §1

M3 muscarinic receptor = target: T4, M3 muscarinic receptor (Homo sapiens, UniProt P20309); experiment: Functional mobilization of intracellular calcium (FLIPR), M3-CHO cells; conditions: for M3 Activity: M3-CHO cells, calcium mobilization (FLIPR)
T4 construct: expressed in transfected cells; host or cells: CHO (M3-CHO)
T4 sequence (P20309 whole entry): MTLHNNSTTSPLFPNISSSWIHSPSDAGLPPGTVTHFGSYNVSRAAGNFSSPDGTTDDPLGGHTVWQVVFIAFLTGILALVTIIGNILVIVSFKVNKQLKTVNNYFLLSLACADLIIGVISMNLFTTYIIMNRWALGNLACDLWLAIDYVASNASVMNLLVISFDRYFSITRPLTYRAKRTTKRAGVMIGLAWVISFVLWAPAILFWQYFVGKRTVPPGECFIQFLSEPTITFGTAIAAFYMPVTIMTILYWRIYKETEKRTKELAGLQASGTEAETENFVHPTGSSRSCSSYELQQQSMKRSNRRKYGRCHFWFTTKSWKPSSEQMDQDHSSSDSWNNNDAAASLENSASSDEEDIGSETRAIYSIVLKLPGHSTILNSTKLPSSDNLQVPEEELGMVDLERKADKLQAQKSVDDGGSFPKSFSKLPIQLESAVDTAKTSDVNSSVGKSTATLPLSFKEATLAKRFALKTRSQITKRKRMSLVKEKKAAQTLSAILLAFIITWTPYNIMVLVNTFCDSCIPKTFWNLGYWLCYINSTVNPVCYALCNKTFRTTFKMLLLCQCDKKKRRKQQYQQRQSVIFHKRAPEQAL
How it was run: as §1

[1] = 100% efficacy = maximum response obtained with the Carbachol control
[2] = 100% efficacy is the maximum response obtained with the Carbachol control

| SMILES | Emax (M2 muscarinic receptor; [1]) [%] | M2 Activity (M2 muscarinic receptor) | Emax (M1 muscarinic receptor; [1]) [%] | M1 Activity (M1 muscarinic receptor) | Emax (M4 muscarinic receptor; [1]) [%] | M4 Activity (M4 muscarinic receptor) | Emax (M3 muscarinic receptor; [1]) [%] | M3 Activity (M3 muscarinic receptor) | Emax (M2 muscarinic receptor; [2]) [%] | Emax (M1 muscarinic receptor; [2]) [%] | Emax (M4 muscarinic receptor; [2]) [%] | Emax (M3 muscarinic receptor; [2]) [%] |
| --- | --- | --- | --- | --- | --- | --- | --- | --- | --- | --- | --- | --- |
| COc1ccccc1C1CCN(CC2CCOC2)CC1 (stereo not drawn) [Compound 369] | < 25 | + (activity was measured to be greater than 5.0 μM) | 25 to 100 | + (activity was measured to be greater than 5.0 μM) | 25 to 100 | ++ (activity was measured to be from 1.0 μM to 5.0 μM) | < 25 | + (activity was measured to be greater than 5.0 μM) | – | – | – | – |
| COc1ccccc1C1CCN(C2CCC(C3CCC(=O)CC3)CC2)CC1 (stereo not drawn) [Compound 370] | < 25 | + (activity was measured to be greater than 5.0 μM) | < 25 | + (activity was measured to be greater than 5.0 μM) | 25 to 100 | ++ (activity was measured to be from 1.0 μM to 5.0 μM) | < 25 | + (activity was measured to be greater than 5.0 μM) | – | – | – | – |
| COc1ccc(F)cc1C1CCN(C2CC3CCC2C3)CC1 (stereo not drawn) [Compound 371] | 25 to 100 | ++ (activity was measured to be from 1.0 μM to 5.0 μM) | 25 to 100 | ++ (activity was measured to be from 1.0 μM to 5.0 μM) | 25 to 100 | +++ (activity was measured to be less than 1.0 μM) | < 25 | + (activity was measured to be greater than 5.0 μM) | – | – | – | – |
| COc1ccc(Cl)cc1C1CCN(C2(C)CCOCC2)CC1 [Compound 372] | – | ++ (activity was measured to be from 1.0 μM to 5.0 μM) | – | ++ (activity was measured to be from 1.0 μM to 5.0 μM) | – | +++ (activity was measured to be less than 1.0 μM) | – | + (activity was measured to be greater than 5.0 μM) | 25 to 100 | 25 to 100 | 25 to 100 | < 25 |
| COc1ccccc1C1(C#N)CCN(CC2CCOCC2)CC1 [Compound 373] | – | + (activity was measured to be greater than 5.0 μM) | – | + (activity was measured to be greater than 5.0 μM) | – | + (activity was measured to be greater than 5.0 μM) | – | + (activity was measured to be greater than 5.0 μM) | < 25 | < 25 | 25 to 100 | < 25 |
| COc1ccccc1C1CCN(C2CCCC(O)CCC2)CC1 (stereo not drawn) [Compound 374] | – | + (activity was measured to be greater than 5.0 μM) | – | + (activity was measured to be greater than 5.0 μM) | – | ++ (activity was measured to be from 1.0 μM to 5.0 μM) | – | + (activity was measured to be greater than 5.0 μM) | < 25 | < 25 | 25 to 100 | < 25 |
| OC1(c2cc(Cl)cc(Cl)c2)CCN(C2C[C@H]3CC[C@H]2C3)CC1 (stereo partly drawn) [Compound 375] | – | + (activity was measured to be greater than 5.0 μM) | – | + (activity was measured to be greater than 5.0 μM) | – | + (activity was measured to be greater than 5.0 μM) | – | + (activity was measured to be greater than 5.0 μM) | < 25 | < 25 | 25 to 100 | < 25 |
| COc1ccc(Cl)cc1C1CCN(C2CCSCC2)CC1 [Compound 376] | – | + (activity was measured to be greater than 5.0 μM) | – | ++ (activity was measured to be from 1.0 μM to 5.0 μM) | – | +++ (activity was measured to be less than 1.0 μM) | – | + (activity was measured to be greater than 5.0 μM) | < 25 | 25 to 100 | 25 to 100 | < 25 |
| COc1ccc(C#CC2(O)CCCCC2)cc1C1CCN([C@@H]2C[C@H]3CC[C@H]2C3)CC1 [Compound 377] | – | + (activity was measured to be greater than 5.0 μM) | – | + (activity was measured to be greater than 5.0 μM) | – | +++ (activity was measured to be less than 1.0 μM) | – | + (activity was measured to be greater than 5.0 μM) | < 25 | < 25 | 25 to 100 | < 25 |
| Fc1ccccc1C1CCN(C2CCOCC2)CC1 [Compound 378] | – | + (activity was measured to be greater than 5.0 μM) | – | + (activity was measured to be greater than 5.0 μM) | – | +++ (activity was measured to be less than 1.0 μM) | – | + (activity was measured to be greater than 5.0 μM) | < 25 | 25 to 100 | 25 to 100 | < 25 |
| Cc1ccc(F)cc1C1CCN([C@@H]2C[C@H]3CC[C@H]2C3)CC1 [Compound 381] | – | ++ (activity was measured to be from 1.0 μM to 5.0 μM) | – | ++ (activity was measured to be from 1.0 μM to 5.0 μM) | – | +++ (activity was measured to be less than 1.0 μM) | – | + (activity was measured to be greater than 5.0 μM) | 25 to 100 | 25 to 100 | 25 to 100 | < 25 |
| COc1ccc(-c2ccc3c(c2)OCO3)cc1C1CCN(C2CCCCC2)CC1 [Compound 382] | – | + (activity was measured to be greater than 5.0 μM) | – | + (activity was measured to be greater than 5.0 μM) | – | + (activity was measured to be greater than 5.0 μM) | – | + (activity was measured to be greater than 5.0 μM) | < 25 | < 25 | 25 to 100 | < 25 |
| COc1ccc(-c2ccc(C#N)cc2)cc1C1CCN([C@@H]2C[C@H]3CC[C@H]2C3)CC1 [Compound 383] | – | + (activity was measured to be greater than 5.0 μM) | – | + (activity was measured to be greater than 5.0 μM) | – | ++ (activity was measured to be from 1.0 μM to 5.0 μM) | – | + (activity was measured to be greater than 5.0 μM) | < 25 | 25 to 100 | 25 to 100 | < 25 |
| CCC(C)Oc1ccccc1C1CCN([C@H]2C[C@H]3CC[C@H]2C3)CC1 (stereo partly drawn) [Compound 384] | – | + (activity was measured to be greater than 5.0 μM) | – | + (activity was measured to be greater than 5.0 μM) | – | ++ (activity was measured to be from 1.0 μM to 5.0 μM) | – | + (activity was measured to be greater than 5.0 μM) | < 25 | 25 to 100 | 25 to 100 | < 25 |
| Cc1ccc(-c2ccccc2C2CCN([C@H]3C[C@H]4CC[C@H]3C4)CC2)c(C)c1 [Compound 386] | – | + (activity was measured to be greater than 5.0 μM) | – | + (activity was measured to be greater than 5.0 μM) | – | + (activity was measured to be greater than 5.0 μM) | – | + (activity was measured to be greater than 5.0 μM) | < 25 | < 25 | 25 to 100 | < 25 |

— US7880007B2, “Bicyclic substituted phenyl piperidine modulators of muscarinic receptors” (Vertex Pharmaceuticals Incorporated, priority 2004, dated 2011)
